The target in the experiment is Cathepsin S (UniProt P25774). Description: Cathepsin enzyme inhibition assay (fluorogenic peptide substrate Z-Val-Val-Arg-AMC), Cathepsin S. Format: biochemical, human and mouse. The conditions noted are these: enzyme 1 nM, substrate 20 μM, pH 6.5; read-out: CatS IC50. As for the experimental part: Cathepsin Enzyme Inhibition Assay
Enzyme activity is measured by observing the increase in fluorescence intensity caused by cleavage of a peptide substrate containing a fluorophore whose emission is quenched in the intact peptide.
Assay buffer: 100 mM potassium phosphate pH 6.5, EDTA-Na 5 mM, Triton X-100 0.001%, DDT 5 mM.
Enzymes (all at 1 nM): human and mouse Cathepsin S, Cat K, Cat B, Cat L Substrate (20 μM): Z-Val-Val-Arg-AMC, except for Cat K which uses Z-Leu-Arg-AMC (both from Bachem).
AMC=7-Amino-4-Methyl-Coumarin.
Enzyme is added to the substance dilutions in 96-well microtitre plates and the reaction is started with substrate. […] IC50 are calculated by standard methods. The results are expressed in μM in the following table.

For `CC(C)(C)OC(=O)N1C[C@H](S(=O)(=O)c2c(Cl)cccc2Cl)C[C@H]1C(=O)NC1(C#N)CC1` [Example 47, (2S,4R)-2-(1-Cyano-cyclopropylcarbamoyl)-4-(2,6-dichloro-benzenesulfonyl)-pyrrolidine-1-carboxylic acid tert-butyl ester], the IC50 stood at 1.4 nM.

Regarding `N#CC1(NC(=O)[C@@H]2C[C@@H](S(=O)(=O)c3ccccc3Cl)CN2C(=O)C2(c3ccc(Cl)cc3)CC2)CC1` [Example 215, (2S,4R)-4-(2-Chloro-benzenesulfonyl)-1-[1-(4-chloro-phenyl)-cyclopropanecarbonyl]-pyrrolidine-2-carboxylic acid (1-cyano-cyclopropyl)-amide], the half-maximal inhibitory concentration (IC50) came to 0.2 nM.

Take `Cc1cc(N2C[C@H](S(=O)(=O)c3ccccc3C(F)(F)F)C[C@H]2C(=O)NC2(C#N)CC2)nn1C` [Example 255, (2S,4R)-1-(1,5-Dimethyl-1H-pyrazol-3-yl)-4-(2-trifluoromethyl-benzenesulfonyl)-pyrrolidine-2-carboxylic acid (1-cyano-cyclopropyl)-amide]: the IC50 amounted to 5.65 nM. As for `N#CC1(NC(=O)[C@@H]2C[C@@H](S(=O)(=O)c3ccc(-c4ccc(F)cc4F)cc3C(F)(F)F)CN2C(=O)C2(C(F)(F)F)CC2)CC1` [Example 263, (2S,4R)-4-(2′,4′-Difluoro-3-trifluoromethyl-biphenyl-4-sulfonyl)-1-(1-trifluoromethyl-cyclopropanecarbonyl)-pyrrolidine-2-carboxylic acid (1-cyano-cyclopropyl)-amide], the concentration for half-maximal inhibition (IC50) stood at 0.33 nM. Take `Cc1cc(N2C[C@H](S(=O)(=O)c3ccccc3C(F)(F)F)C[C@H]2C(=O)NC2(C#N)CC2)n[nH]1` [Example 286, (2S,4R)-1-(5-Methyl-1H-pyrazol-3-yl)-4-(2-trifluoromethyl-benzenesulfonyl)-pyrrolidine-2-carboxylic acid (1-cyano-cyclopropyl)-amide]: the IC50 is 15 nM. Under `N#CC1(NC(=O)[C@@H]2C[C@@H](S(=O)(=O)c3ccc(N4CCN(CC(F)(F)F)CC4)cc3Cl)CN2C(=O)C2(C(F)(F)F)CC2)CC1` [Example 291, (2S,4R)-4-{2-Chloro-4-[4-(2,2,2-trifluoro-ethyl)-piperazin-1-yl]-benzenesulfonyl}-1-(1-trifluoromethyl-cyclopropanecarbonyl)-pyrrolidine-2-carboxylic acid (1-cyano-cyclopropyl)-amide] stands 14.7 nM; under `CN1CCN(c2ccc(S(=O)(=O)[C@@H]3CC(C(=O)NC4(C#N)CC4)N(C(=O)C4(C(F)(F)F)CC4)C3)c(Cl)c2)CC1` (stereo partly drawn) [Example 305, (R)-4-[2-Chloro-4-(4-methyl-piperazin-1-yl)-benzenesulfonyl]-1-(1-trifluoromethyl-cyclopropanecarbonyl)-pyrrolidine-2-carboxylic acid (1-cyano-cyclopropyl)-amide], 19.7 nM. For the compound `N#CC1(NC(=O)[C@@H]2C[C@@H](S(=O)(=O)c3ccc(F)cc3Cl)CN2C(=O)C2(c3ccc(Cl)cc3)CC2)CC1` [Example 312, (2S,4R)-4-(2-Chloro-4-fluoro-benzenesulfonyl)-1-[1-(4-chloro-phenyl)-cyclopropanecarbonyl]-pyrrolidine-2-carboxylic acid (1-cyano-cyclopropyl)-amide], the concentration for half-maximal inhibition (IC50) is 0.195 nM. Under `CN1CCN(c2ccc(S(=O)(=O)[C@@H]3C[C@@H](C(=O)NC4(C#N)CC4)N(C(=O)C4(c5ccc(Cl)cc5)CC4)C3)c(Cl)c2)CC1` [Example 324, (2S,4R)-4-[2-Chloro-4-(4-methyl-piperazin-1-yl)-benzenesulfonyl]-1-[1-(4-chloro-phenyl)-cyclopropanecarbonyl]-pyrrolidine-2-carboxylic acid (1-cyano-cyclopropyl)-amide] stands 0.09 nM; under `N#CC1(NC(=O)[C@@H]2C[C@@H](S(=O)(=O)c3ccc(-n4ccnc4)cc3Cl)CN2C(=O)C2(c3ccc(Cl)cc3)CC2)CC1` [Example 325, (2S,4R)-4-(2-Chloro-4-imidazol-1-yl-benzenesulfonyl)-1-[1-(4-chloro-phenyl)-cyclopropanecarbonyl]-pyrrolidine-2-carboxylic acid (1-cyano-cyclopropyl)-amide], 0.08 nM.

In general, IC50 refers to the point on the concentration scale where inhibition reaches its midpoint.

For the origin of these results see patent publication US8163793B2, “Proline derivatives” (Hoffman-La Roche Inc., priority 2009, dated 2012).
